According to US11136299B2, “Benzodiazepine derivatives for use in the treatment of Chlamydiales infections” (priority 2015, dated 2021):

Experiments:
Format in all cases: cell-based
[1] = tested on: Chlamydia trachomatis (Ctr) strain L2/434/Bu; test: Ctr infectivity assay, progeny infection, cellular protection by GFP microscopy quantification; details: HeLa229 cells, Ctr MOI1, progeny infection fixed 48 hpi, versus solvent-treated cells; for inhibition at 25 µM: Chlamydia trachomatis, HeLa 229, 48 h; for Cellular protection at 75 μM (%): 75 μM compound
From the text: (§1) Chlamydia trachomatis (Ctr). Laboratory-adapted strain L2/434/Bu (ATCC VR902B) was used in assays. Full biological and genetic information is available for this strain including complete genome sequence and defined proteome. This strain has a relatively low particle to infectivity ratio, perform efficient cell infection and has a higher viability than standard genital tract isolates with faster developmental cycle. Culture conditions have been described in (Wang Y., Kahane S., Cutcliffe L. T., Skilton R. J., Lambden P. R., Clarke I. N. Development of a transformation system for Chlamydia trachomatis: Restoration of glycogen biosynthesis by acquisition of a plasmid shuttle vector. PLoS Pathogen, 2011, 7(9): e1002258. doi: 10.1371/journal.ppat.1002258).
Compound application during Chlamydia trachomatis infection. HeLa229 cells were pretreated with Retro-1 and Retro-1 derivatives in concentrations of 25 μM and 75 μM for 1 hour until Chlamydia trachomatis (MOI1) were added to the cells. Compounds were present during infection. To obtain progeny infection, compound treated cells were lysed 24 h post infection (hpi) and lysate was used to infect fresh HeLa 229 cells. Infected cells of progeny infection were fixed with 4% Paraformaldehyde 48 hpi. Cells were stained for DAPI and Chlamydia trachomatis were detected by GFP-signal. Images are representative of n=2 independent experiments. Quantification of infected cells by Chlamydia trachomatis was realized from microscopy images with Image J software (FIG. 7) and cellular protection by compounds at 25 μM and 75 μM was then determined (Table 1) by comparison with solvent-treated cells (control) with the following equation: […]

[2] = tested on: Chlamydia trachomatis (Ctr) strain L2/434/Bu; test: Ctr infectivity assay, primary and progeny infection, HSP60 immunoblot; details: Retro-1 50-75 μM in the primary infection; HeLa229 cells; FIG. 6
From the text: as §1, with “performs” for “perform”
Compound application during Ctr infection. HeLa229 cells were pretreated with Retro-1 in concentrations of 25, 50 and 75 μM for 30 min until Ctr (MOI1) were added to the cells. Retro-1 was present during infection.
Cells with primary infection were lysed 24 h post infection (hpi). To obtain progeny infection compound treated cells were lysed 48 hpi and lysate was used to infect fresh HeLa229 cells. Progeny infection was lysed 24 hpi and analyzed together with primary infection samples by immunoblot. Chlamydial growth was detected with antibodies against chlamydial HSP60 protein and Actin was used as loading control (FIG. 6).

[3] = tested on: Simkania negevensis (Sn) strain Z; test: Sn infectivity assays (primary and progeny infection) in HeLa229 cells; details: for effect on primary and progeny infection for Simkania / concentration at which maximal inhibition of Sn replication was observed: HeLa cells; for effect on primary and progeny infection for Simkania: GroEL western, inclusion size, inclusion number, microscopy; for concentration at which maximal inhibition of Sn replication was observed: tested at 25 and 75 μM, FIGS. 1-4; for effect on Sn inclusions (transmission electron microscopy): infected HeLa cells versus DMSO-treated control, FIG. 5
Description: Simkania negevensis (Sn) strain Z (ATCC VR-1471) was prepared as described previously (Mehlitz A, Karunakaran K, Herweg J A, Krohne G, van de Linde S, Rieck E, Sauer M, Rudel T. The chlamydial organism Sn forms ER vacuole contact sites and inhibits ER-stress. Cell Microbiol 2014; 16(8):1224-1243).
Briefly, HeLa229 cells were grown to 50-70% confluence, were inoculated with Sn in RPMI1640 with 5% FBS, for 6 h at 35° C. in a humidified incubator at 5% CO2. Medium was replaced by infection medium (RPMI1640, Glutamax, 5% FBS, w/o HEPES) and growth was allowed for 3 days. Cells were mechanically detached and bacteria were released using ˜2-5 mm glass beads (Carl Roth). Low speed supernatant (600×g, 4° C. and 5 min) was subjected to high-speed centrifugation (20,000×g, 4° C. and 30 min) to pellet bacteria. Bacteria were washed twice with 5 ml SPG (250 mM sucrose, 50 mM sodium phosphate, 5 mM glutamate, pH 7.4), aliquoted and stored at −80° C. in SPG.
40,000 Hela cells were seeded in 12-well cluster plates, inhibitor-treated and infected as indicated in the respective experiment.
For infectivity assays cells were either fixed and stained at indicated time points (FIG. 2, 4; inclusion formation/primary infection) or bacteria were released via one freeze thaw cycle (−70° C./37° C.) followed by mechanical release through pipetting and transfer to fresh HeLa229 cells (1:25-1:50, progeny/infectivity). Cells were centrifuged for 1 h at 35° C. and medium exchanged to infection medium. Progeny was fixed at day 3 post infection and processed for staining (FIG. 3) or harvested for immunoblotting (FIG. 1). Infectivity assays were imaged on an automated fluorescence microscope Leica DMIR (FIG. 4). Numbers and average sizes of the SCV as well as host cell numbers were determined via GroEL and DAPI staining and images were analysed and quantified using FIJI (ImageJ) and Excel (Microsoft).
In progeny assay, bacteria are first grown in Hela299 cells treated with inhibitors, Retro-1 and VP-184 (25 and 75 μM), and the infectious particles from this primary infection are applied to fresh cells in the absence of inhibitor to measure the bacterial load (GroEL immunoblot) and inclusion formation (immunofluorescence microscopy).

SMILES: O=C1CN=C(c2ccccc2)c2cc(Br)cc(Br)c2N1 [HA061, 7,9-dibromo-5-phenyl-1,3-dihydro-2H-benzo[e][1,4]diazepin-2-one]
- inhibition at 25 µM ([1]; 25 μM compound): 57.8%

SMILES: O=C1CN=C(c2ccccc2Cl)c2cc(Cl)ccc2N1 [HA197, 7-chloro-5-(2-chlorophenyl)-1,3-dihydro-2H-benzo[e][1,4]diazepin-2-one]
- Cellular protection at 75 μM (%) [1]: 84.3%
- inhibition at 25 µM ([1]; 25 μM compound): 90.6%

SMILES: CN1C(=O)CN=C(c2ccccc2Cl)c2cc(Cl)ccc21 [HA200, 7-chloro-5-(2-chlorophenyl)-1-methyl-1,3-dihydro-2H-benzo[e][1,4]diazepin-2-one]
- inhibition at 25 µM ([1]; 25 μM compound): 47%

SMILES: O=C1CN(C2CCCC2)C(c2ccccc2)c2cc(Br)ccc2N1 (stereo not drawn) [HA229, 7-bromo-4-cyclopentyl-5-phenyl-1,3,4,5-tetrahydro-2H-benzo[e][1,4]diazepin-2-one]
- inhibition at 25 µM ([1]; 25 μM compound): 20.2%

SMILES: CC1CCC(N2CC(=O)Nc3ccc(Br)cc3C2c2ccccc2)C1 (stereo not drawn) [HA280, 7-bromo-4-(3-methylcyclopentyl)-5-phenyl-1,3,4,5-tetrahydro-2H-benzo[e][1,4]diazepin-2-one]
- Cellular protection at 25 μM (%) ([1]; 25 μM compound): full protection
- inhibition at 25 µM ([1]; 25 μM compound): 100%

SMILES: CCC(=O)N1CC(=O)Nc2ccc(Br)cc2C1c1ccccc1 (stereo not drawn) [Retro-1, 7-bromo-5-phenyl-4-propionyl-1,3,4,5-tetrahydro-2H-benzo[e][1,4]diazepin-2-one]
- infectivity in the Ctr progeny (HSP60 immunoblot) [2]: significant reduced infectivity in the progeny
- Cellular protection at 75 μM (%) [1]: 2.4%
- inhibition at 25 µM ([1]; 25 μM compound): 26.5%
- effect on primary and progeny infection for Simkania [3]: inhibitor effect on primary and progeny infection
- concentration at which maximal inhibition of Sn replication was observed [3]: 75 µM
- effect on Sn inclusions (transmission electron microscopy) [3]: inclusions were smaller

SMILES: O=C1CN=C(c2ccccc2)c2cc(Br)ccc2N1 [VP173, 7-bromo-5-phenyl-1,3-dihydro-2H-benzo[e][1,4]diazepin-2-one]
- Cellular protection at 75 μM (%) [1]: 100%
- Cellular protection at 75 μM (%) ([1]; listed as VP 173): full protection
- inhibition at 25 µM ([1]; 25 μM compound): 61.5%

SMILES: O=C1CNC(c2ccccc2)c2cc(Br)ccc2N1 (stereo not drawn) [VP174, 7-bromo-5-phenyl-1,3,4,5-tetrahydro-2H-benzo[e][1,4]diazepin-2-one]
- Cellular protection at 75 μM (%) [1]: 52.8%
- inhibition at 25 µM ([1]; 25 μM compound): 27.6%

SMILES: CCCN1CC(=O)Nc2ccc(Br)cc2C1c1ccccc1 (stereo not drawn) [VP-184, 7-bromo-5-phenyl-4-propyl-1,3,4,5-tetrahydro-2H-benzo[e][1,4]diazepin-2-one]
- effect on primary and progeny infection for Simkania [3]: inhibitor effect on primary and progeny infection
- concentration at which maximal inhibition of Sn replication was observed [3]: 25 µM
- effect on Sn inclusions (transmission electron microscopy) [3]: strongly reduced Sn inclusion formation, size, numbers and Sn replication
